Test results reported in patent US11013235B2 (priority 2015, dated 2021).
Read-outs that look alike come from different tables or passages of the source.

Assays:
Format in all cases: in vivo
Botrytis cinerea [1] = test: Control of Botrytis cinerea disease in tomato (Bc-SI); settings: 1 μM spraying every 24 hours for one week, water control 7.4
Method: (§1) In order to compare the effect of the compounds of formula I to V on the control of diseases in different plants, experiments were conducted in tobacco, tomato and Arabidopsis thaliana plants inoculated with Phytophthora parasitica, Rhizoctonia solani, Alternaria solani, Nocardia sp and Botrytis cinerea, respectively. The compounds were applied by spraying, at a concentration of 1 μM, every 24 hours for one week. The plant mortality rate was determined for the disease produced by Phytophthora parasitica, Rhizoctonia solani and Nocardia sp, while the percentage of leaves with symptoms was determined for the infection by Alternaria solani. In the case of plants affected by Botrytis cinerea, the lesion diameter was measured. […] Each treatment included fifty plants. As control, plants treated with water were studied. The plants of each treatment were previously inoculated with the indicated pathogens, according to different inoculation protocols (Frontiers in Plant Science 3: 268, 1-6, 2012), and later they were treated with the compounds.

Alternaria solani = test: Control of Alternaria solani disease in tomato (As-SI); settings: 1 μM spraying every 24 hours for one week, water control 68
Method: as §1

[2] = test system: Candidatus 'Liberibacter asiaticus'; settings: spraying every 15 days, 12 months after treatment, Citrus sinensis with HLB
Pratylenchus coffeae = test: Nematode control, nodules per plant: Pratylenchus coffeae; settings: 1 μM foliar application every 5 days, evaluation 35 days after, control 42
Method: (§2) The solutions of the compounds were prepared in ethanol and diluted in water, up to a concentration of 1 μM for a foliar application. Applications were conducted every 5 days, spraying only the leafs with each compound. Ten plants were used for each treatment and the final evaluation was performed 35 days after, by quantifying the number of nodules per plant.

Nocardia sp = test: Control of Nocardia sp disease in tobacco (N-Nt); settings: 1 μM spraying every 24 hours for one week, water control 58
Method: as §1

Rhizoctonia solani [3] = test: Control of Rhizoctonia solani disease in tomato (Rs-SI); settings: 1 μM spraying every 24 hours for one week, water control 96
Method: as §1

Botrytis cinerea [4] = test: Control of Botrytis cinerea disease in tobacco (Bc-Nt); settings: 1 μM spraying every 24 hours for one week, water control 6.7
Method: as §1

Botrytis cinerea [5] = test: Control of Botrytis cinerea disease in Arabidopsis (Bc-At); settings: 1 μM spraying every 24 hours for one week, water control 8.7
Method: as §1

Rhizoctonia solani [6] = test: Control of Rhizoctonia solani disease in tobacco (Rs-Nt); settings: 1 μM spraying every 24 hours for one week, water control 87
Method: as §1

Radopholus similis = test: Nematode control, nodules per plant: Radopholus similis; settings: 1 μM foliar application every 5 days, evaluation 35 days after, control 45
Method: as §2

Phytophthora parasitica = test: Control of Phytophthora parasitica disease in tobacco (Pp-Nt); settings: 1 μM spraying every 24 hours for one week, water control 91
Method: as §1

Meloidogyne incognita = test: Nematode control, nodules per plant: Meloidogyne incognita; settings: 1 μM foliar application every 5 days, evaluation 35 days after, control 34
Method: as §2

| Compound | Bc-SI: mean of the diameter of the lesion (Botrytis cinerea [1]) | As-SI: percentage of leaves with the disease symptoms (Alternaria solani) | Titers of the bacterium ([2]; 0.001 μM) | Titers of the bacterium ([2]; 0.01 μM) | Titers of the bacterium ([2]; 1 μM) | Titers of the bacterium ([2]; 5 μM) | Titers of the bacterium ([2]; 10 μM) | Pc: number of nodules per plant (Pratylenchus coffeae) | N-Nt: percentage of mortality (Nocardia sp) | Rs-SI: percentage of mortality (Rhizoctonia solani [3]) | Bc-Nt: mean of the diameter of the lesion (Botrytis cinerea [4]) | Bc-At: mean of the diameter of the lesion (Botrytis cinerea [5]) | Rs-Nt: percentage of mortality (Rhizoctonia solani [6]) | Rs: number of nodules per plant (Radopholus similis) | Pp-Nt: percentage of mortality (Phytophthora parasitica) | Mi: number of nodules per plant (Meloidogyne incognita) |
| --- | --- | --- | --- | --- | --- | --- | --- | --- | --- | --- | --- | --- | --- | --- | --- | --- |
| O=C(Cc1cc2c(oc1=O)C=CC1C(n3cccc3)=COC21)NCC(O)CO (stereo not shown) [IIG, N-(2,3-dihydroxypropyl)-2-[11-oxo-5-(1H-pyrrol-1-yl)-3,10-dioxatricyclo[7.4.0.0^{2,6}]trideca-1(9),4,7,12-tetraen-12-yl]acetamide] | 0.8 mm | 7% | 658 copies per reaction | 0 copies per reaction | 3 copies per reaction | 68 copies per reaction | 4587 copies per reaction | 0 | 0% | 1% | 0.9 mm | 0.5 mm | 0% | 3 | 3% | 0 |
| CC1=COC2c3c(oc(=O)c(CC(=O)NCC(O)CO)c3C)C=CC12 (stereo not shown) [IIH, N-(2,3-dihydroxypropyl)-2-{5,13-dimethyl-11-oxo-3,10-dioxatricyclo[7.4.0.0^{2,6}]trideca-1(9),4,7,12-tetraen-12-yl}acetamide] | 2.5 mm | 1% | 756 copies per reaction | 0 copies per reaction | 1 copies per reaction | 76 copies per reaction | 2365 copies per reaction | 18 | 1% | 3% | 1.5 mm | 1.5 mm | 2% | 16 | 1% | 2 |
| Cc1c2c(oc(=O)c1CC(=O)NCC(O)CO)C=CC1C(c3ccccc3)=COC21 (stereo not shown) [III, N-(2,3-dihydroxypropyl)-2-{13-methyl-11-oxo-5-phenyl-3,10-dioxatricyclo[7.4.0.0^{2,6}]trideca-1(9),4,7,12-tetraen-12-yl}acetamide] | 0.8 mm | 2% | 456 copies per reaction | 0 copies per reaction | 1 copies per reaction | 56 copies per reaction | 3654 copies per reaction | 1 | 1% | 2% | 1.5 mm | 2.4 mm | 3% | 2 | 2% | 3 |
| CN1CCN(c2ncc(C(=O)N3CC4CC(O)C(O)CC4C3)cn2)CC1 (stereo not shown) [IIIA, 2-{[2-(4-methylpiperazin-1-yl)pyrimidin-5-yl]carbonyl}-octahydro-1H-isoindole-5,6-diol] | 0.8 mm | 1% | 432 copies per reaction | 0 copies per reaction | 0 copies per reaction | 43 copies per reaction | 2365 copies per reaction | 16 | 1% | 3% | 1.5 mm | 2.4 mm | 2% | 11 | 1% | 2 |
| Cc1nc(N2CCN(C)CC2)ncc1C(=O)N1CC2CC(O)C(O)CC2C1 (stereo not shown) [IIIB, 2-{[4-methyl-2-(4-methylpiperazin-1-yl)pyrimidin-5-yl]carbonyl}-octahydro-1H-isoindole-5,6-diol] | 1.2 mm | 2% | 123 copies per reaction | 0 copies per reaction | 0 copies per reaction | 23 copies per reaction | 8546 copies per reaction | 16 | 1% | 2% | 0.9 mm | 0.7 mm | 3% | 2 | 2% | 3 |
| O=C(c1cnc(N2CCN(c3ccccc3)CC2)nc1)N1CC2CC(O)C(O)CC2C1 (stereo not shown) [IIIC, 2-{[2-(4-phenylpiperazin-1-yl)pyrimidin-5-yl]carbonyl}-octahydro-1H-isoindole-5,6-diol] | 0.8 mm | 3% | 587 copies per reaction | 0 copies per reaction | 0 copies per reaction | 87 copies per reaction | 3654 copies per reaction | 2 | 2% | 2% | 0.3 mm | 1.2 mm | 4% | 14 | 1% | 4 |
| Cc1nc(N2CCN(c3ccccc3)CC2)ncc1C(=O)N1CC2CC(O)C(O)CC2C1 (stereo not shown) [IIID, 2-{[4-methyl-2-(4-phenylpiperazin-1-yl)pyrimidin-5-yl]carbonyl}-octahydro-1H-isoindole-5,6-diol] | 1.6 mm | 8% | 985 copies per reaction | 1 copies per reaction | 0 copies per reaction | 98 copies per reaction | 9653 copies per reaction | 18 | 1% | 2% | 2.0 mm | 1.1 mm | 0% | 0 | 0% | 0 |
